Patent publication US20240400560A1, “BICYCLIC HETEROCYCLIC DERIVATIVE HAVING VIRAL GROWTH INHIBITORY ACTIVITY AND PHARMACEUTICAL COMPOSITION CONTAINING SAME” (Shionogi & Co., Ltd., priority 2021, published 2024)

How the values were obtained:
SARS-CoV-2 = experiment: Inhibitory activity of cytopathic effect (CPE) in Vero E6/TMPRSS2 cells; format: cell-based
SARS-CoV-2 3CL protease = SARS-CoV-2 3CL protease (Severe acute respiratory syndrome coronavirus 2, UniProt P0DTD1); experiment: Inhibitory activity test against SARS-CoV-2 3CL proteases; format: biochemical; settings: read-out: IC50 (50% SARS-CoV-2 3CL protease inhibitory concentration)
[1] = Severe acute respiratory syndrome coronavirus 2, VeroE6/TMPRSS2, 50% SARS-CoV-2 infected cell death inhibitory concentration, class symbols
[2] = Severe acute respiratory syndrome coronavirus 2, VeroE6/TMPRSS2, 72 h, 50% SARS-CoV-2 infected cell death inhibitory concentration, CellTiter-Glo 2.0 after 3 days culture

Molecule `Cc1cncc(-n2c(=O)c3c(Cl)cc(-c4cc(C#N)ccc4Cl)cc3n(Cc3ccc(F)c(C#N)c3)c2=O)c1` [Compound I-0013] has an EC50 (SARS-CoV-2; [1]) of less than 1000 nM and an IC50 (SARS-CoV-2 3CL protease) of less than 100 nM.
`COc1cc(-c2cc(C#N)ccc2Cl)cc2c1c(=O)n(-c1cncc(C)c1)c(=O)n2Cc1cc(C#N)c(F)cc1C` [Compound I-0164] gave an EC50 (SARS-CoV-2; [2]) of 80 nM and an IC50 (SARS-CoV-2 3CL protease) of 1.2 nM.
For `Cc1cncc(-n2c(=O)c3c(F)cc(-c4cc(CO)ccc4Cl)cc3n(Cc3ccc(F)c(C#N)c3)c2=O)c1` [Compound I-0054], the EC50 (SARS-CoV-2; [1]) was less than 1000 nM and the IC50 (SARS-CoV-2 3CL protease) was less than 100 nM.
Molecule `COc1cc(-c2cc3c(cc2Cl)NC(=O)C3)cc2c1c(=O)n(-c1cncc(C)c1)c(=O)n2Cc1cc(Cl)c(F)cn1` [Compound I-0059] has an EC50 (SARS-CoV-2; [2]) of 335 nM and an IC50 (SARS-CoV-2 3CL protease) of 2 nM.
For `Cc1cncc(-n2c(=O)c3c(Cl)cc(-c4cc5c(cc4Cl)NC(=O)C5)cc3n(Cc3ccc(F)c(C#N)c3)c2=O)c1` [Compound I-0004], the EC50 (SARS-CoV-2; [2]) was 1160 nM and the IC50 (SARS-CoV-2 3CL protease) was 9.9 nM.
Molecule `COc1cc(-c2cc(CO)ccc2Cl)cc2c1c(=O)n(Cc1ncn(C)n1)c(=O)n2Cc1cc(F)c(F)c(F)c1` [Compound I-0036] has an EC50 (SARS-CoV-2; [1]) of 1000 to 10000 nM and an IC50 (SARS-CoV-2 3CL protease) of less than 100 nM.
Work on `COc1cc(-c2cc3c(cc2Cl)NC(=O)C3)cc2c1c(=O)n(Cc1ncn(C)n1)c(=O)n2Cc1cc(F)c(F)cc1F` [Compound I-0273] yielded an EC50 (SARS-CoV-2; [1]) of 1000 to 10000 nM and an IC50 (SARS-CoV-2 3CL protease) of less than 100 nM.
`COc1cc(-c2cc(S(N)(=O)=O)ccc2Cl)cc2c1c(=O)n(-c1cncc(C)c1)c(=O)n2Cc1ccc(F)c(C#N)c1` [Compound I-0066] gave an EC50 (SARS-CoV-2; [2]) of 11100 nM and an IC50 (SARS-CoV-2 3CL protease) of 5 nM.
In the case of `COc1cc(-c2cc3c(cc2Cl)NC(=O)C3)cc2c1c(=O)n(-c1cncc(C)c1)c(=O)n2Cc1cc(F)c(F)c(F)c1` [Compound I-0058], the EC50 (SARS-CoV-2; [2]) is reported as 194 nM and the IC50 (SARS-CoV-2 3CL protease) is reported as 1.5 nM.
For `Cc1cncc(-n2c(=O)c3c(F)cc(-c4cc(C#N)ccc4Cl)cc3n(Cc3cc(F)c(F)c(F)c3)c2=O)c1` [Compound I-0049], the EC50 (SARS-CoV-2; [1]) was less than 1000 nM and the IC50 (SARS-CoV-2 3CL protease) was less than 100 nM.
`Cc1cncc(-n2c(=O)c3c(Cl)cc(-c4cc(C(N)=O)ccc4Cl)cc3n(Cc3ccc(F)c(C#N)c3)c2=O)c1` [Compound I-0010] was tested, and the EC50 (SARS-CoV-2; [1]) was 1000 to 10000 nM and the IC50 (SARS-CoV-2 3CL protease) was less than 100 nM.
`COc1cc(-c2cc3c(cc2Cl)NC(=O)C3)cc2c1c(=O)n(-c1cncc(C)c1)c(=O)n2Cc1cc(C#N)ccc1Cl` [Compound I-0167] showed an EC50 (SARS-CoV-2; [2]) of 528 nM and an IC50 (SARS-CoV-2 3CL protease) of 1.9 nM.
`COc1cc(-c2cc3cn[nH]c3cc2Cl)cc2c1c(=O)n(-c1cncc(C)c1)c(=O)n2Cc1ccc(F)c(C#N)c1` [Compound I-0063] showed an EC50 (SARS-CoV-2; [1]) of less than 1000 nM and an IC50 (SARS-CoV-2 3CL protease) of less than 100 nM.
`Cc1cncc(-n2c(=O)c3c(F)cc(-c4cc(C(N)=O)ccc4Cl)cc3n(Cc3ccc(F)c(C#N)c3)c2=O)c1` [Compound I-0051] gave an EC50 (SARS-CoV-2; [1]) of 1000 to 10000 nM and an IC50 (SARS-CoV-2 3CL protease) of less than 100 nM.
`COc1cc(-c2cc3c(cc2Cl)NC(=O)C3)cc2c1c(=O)n(Cc1ncn(C)n1)c(=O)n2Cc1cc(F)c(F)c(F)c1F` [Compound I-0047] showed an EC50 (SARS-CoV-2; [1]) of 1000 to 10000 nM and an IC50 (SARS-CoV-2 3CL protease) of less than 100 nM.
In the case of `O=c1[nH]cccc1Cn1c(=O)c2ccc3ccccc3c2n(Cc2cc(F)c(F)c(F)c2)c1=O` [Compound I-0315], the EC50 (SARS-CoV-2; [2]) is reported as 411 nM and the IC50 (SARS-CoV-2 3CL protease) is reported as 350 nM.
`COCc1ccc(Cl)c(-c2cc(OC)c3c(=O)n(-c4cncc(C)c4)c(=O)n(Cc4ccc(F)c(C#N)c4)c3c2)c1` [Compound I-0076] was tested, and the EC50 (SARS-CoV-2; [2]) was 489 nM and the IC50 (SARS-CoV-2 3CL protease) was 20 nM.
Molecule `COc1cc(-c2cc(-c3cnn(C)c3)ccc2Cl)cc2c1c(=O)n(-c1cncc(C)c1)c(=O)n2Cc1ccc(F)c(C#N)c1` [Compound I-0074] has an EC50 (SARS-CoV-2; [2]) of 1830 nM and an IC50 (SARS-CoV-2 3CL protease) of 12 nM.
`COc1cc(-c2cc(NS(C)(=O)=O)ccc2Cl)cc2c1c(=O)n(-c1cncc(C)c1)c(=O)n2Cc1ccc(F)c(C#N)c1` [Compound I-0072] showed an EC50 (SARS-CoV-2; [2]) of 2430 nM and an IC50 (SARS-CoV-2 3CL protease) of 10 nM.
Molecule `CCOc1cc(-c2cc(C#N)ccc2Cl)cc2c1c(=O)n(-c1cncc(C)c1)c(=O)n2Cc1ccc(F)c(C#N)c1` [Compound I-0295] has an EC50 (SARS-CoV-2; [2]) of 426 nM and an IC50 (SARS-CoV-2 3CL protease) of 15 nM.
In the case of `COc1cc(-c2cc(C#N)ccc2Cl)cc2c1c(=O)n(-c1cncc(C)c1)c(=O)n2Cc1cc(C#N)ccc1Cl` [Compound I-0168], the EC50 (SARS-CoV-2; [1]) is reported as less than 1000 nM and the IC50 (SARS-CoV-2 3CL protease) is reported as less than 100 nM.
